According to patent US7115658B2 (priority 2002, dated 2006):

Target: T1, Recombinant HCV polymerase (Hepatitis C virus genotype 1b, UniProt P26663)
T1 construct: 2.5 pmoles (0.15 μg) HCV polymerase protein
Test: HCV Polymerase Inhibition Assay
Type: biochemical
Conditions: primer/template-directed transcription, 30 minutes at 30° C.; category symbol
Procedure: The above-described compounds were tested for activity with HCV polymerase. Recombinant HCV polymerase was tested for its ability to perform primer/template-directed transcription in assays that contained 30 mM tris-HCl pH 7.2, 10 mM MgCl2, 20 mM NaCl, 1 mM Dithiothreitol (DTT), 0.05% Tween-20, 1% glycerol, 5 pmoles biotin-dG12 (primer), 0.5 pmoles poly(rC)300 (template), 1 μM GTP, 0.1–0.3 uCi α-^32P-GTP, and 2.5 pmoles (0.15 μg) HCV polymerase protein in a final volume of 75 μL. Reactions were initiated by addition of enzyme and incubated 30 minutes at 30° C. Reactions were stopped by addition of 33 mM EDTA, and polynucleotide products were collected by filtration through Diethylaminoethyl (DE) Filtermat papers (Wallac). Unincorporated triphosphate was removed by washing the filters with 5% dibasic sodium phosphate. The filters were counted in a Packard Tri-Lux Microbeta scintillation counter (Packard Bioscience, Meriden, Conn.). Compounds to be tested were added at various concentrations, e.g., 1 μm to 50 μm, from stocks in 10% DMSO-water (final DMSO is 1% in reaction).
IC50 values were estimated from the primary cpm data (collected in triplicate) using the formula: cpm (I)=cpm (no inhibitor)(1−([I]/([I]+IC50))). An IC50 value represents the concentration (in μM) of a compound that provides 50% inhibition of polymerase-directed transcription in the above assay. A percent inhibition value is expressed for a compound where it was impractical to calculate an IC50 value with available data. If the IC50 estimated by the above equation was less than 200 nM, it was recalculated using the following equation, which takes into account the enzyme concentration (30 nM) in the assay: cpm(I)=cpm(no inhibitor)(1−((((I+IC50+30e−9)−sqrt(((I+IC50+30e−9)^2)−4×30e−9×I)))/((2) (30e−9))). Curve fitting was performed using the program KaleidaGraph (Synergy Software, Reading, Pa.).

T1 sequence (P26663 2420-3010): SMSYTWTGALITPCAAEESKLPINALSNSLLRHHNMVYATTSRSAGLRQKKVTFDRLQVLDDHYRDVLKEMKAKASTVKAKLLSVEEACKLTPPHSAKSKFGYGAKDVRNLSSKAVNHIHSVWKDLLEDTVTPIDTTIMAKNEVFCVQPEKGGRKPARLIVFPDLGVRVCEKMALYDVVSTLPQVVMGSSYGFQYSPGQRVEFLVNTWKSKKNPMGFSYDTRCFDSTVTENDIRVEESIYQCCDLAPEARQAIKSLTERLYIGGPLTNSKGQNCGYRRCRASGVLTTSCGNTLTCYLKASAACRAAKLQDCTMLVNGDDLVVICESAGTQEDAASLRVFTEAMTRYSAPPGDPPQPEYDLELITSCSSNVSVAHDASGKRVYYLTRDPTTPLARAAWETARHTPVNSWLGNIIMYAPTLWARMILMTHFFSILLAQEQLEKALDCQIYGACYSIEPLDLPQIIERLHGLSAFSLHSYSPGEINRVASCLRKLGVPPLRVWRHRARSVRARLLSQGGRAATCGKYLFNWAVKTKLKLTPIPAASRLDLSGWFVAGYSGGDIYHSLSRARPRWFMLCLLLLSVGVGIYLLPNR

“5-Trifluoromethyl-pyridine-2-sulfonic acid[5-tert-butyl-4-(6,6-dicyclopentyl-4-hydroxy-2-oxo-5,6-dihydro-2H-pyran-3-ylsulfanyl)-2-methyl-phenyl]-amide [Example 185]” and “6-Cyclopentyl-6-[2-(4-methoxy-phenyl)-ethyl]-3-[2-(3-methyl-isoxazol-5-yl)-acetyl]-dihydro-pyran-2,4-dione [Example 165]” fall in the same range of IC50: 10 to 50 µM for the first, 10 to 50 µM for the second.

“6-[2-(3-Chloro-4-isopropoxy-phenyl)-ethyl]-6-cyclopentyl-3-(5,7-dimethyl-[1,2,4]triazolo[1,5-a]pyrimidin-2-ylsulfanyl)-4-hydroxy-5,6-dihydro-pyran-2-one [Example 129]” and “6-[2-(3-Chloro-4-isopropoxy-phenyl)-ethyl]-6-cyclopentyl-4-hydroxy-3-(4-hydroxy-phenylsulfanyl)-5,6-dihydro-pyran-2-one [Example 130]” cannot be ordered by IC50: less than 1 µM for the first, less than 1 µM for the second.

“6-[2-(3-Chloro-4-isopropoxy-phenyl)-ethyl]-6-cyclopentyl-4-hydroxy-3-(4-methoxy-phenylsulfanyl)-5,6-dihydro-pyran-2-one [Example 131]” and “6-[2-(3-Chloro-4-isopropoxy-phenyl)-ethyl]-6-cyclopentyl-4-hydroxy-3-(thiazol-2-ylsulfanyl)-5,6-dihydro-pyran-2-one [Example 132]” cannot be ordered by IC50: less than 1 µM for the first, less than 1 µM for the second.

First: O=C1C=C(O)CC(CC2CCc3ccccc32)(C2CCCC2)O1 (mixture of isomers) [Example 15, 6-Cyclopentyl-4-hydroxy-6-indan-1-ylmethyl-5,6-dihydro-pyran-2-one]
Second: CC(=O)Nc1cc(C(C)(C)C)c(SC2=C(O)CC(CCc3ccc(O)cc3)(C3CCCC3)OC2=O)cc1C (racemic) [Example 140, (+/−)N-(5-tert-butyl-4-{6-cyclopentyl-4-hydroxy-6-[2-(4-hydroxy-phenyl)-ethyl]-2-oxo-5,6-dihydro-2H-pyran-3-ylsulfanyl}-2-methyl-phenyl)-acetamide]
The IC50 of the first is higher: greater than 50 µM for the first, 1 to 10 µM for the second.

`O=C1CC(=O)OC(CCc2ccc(C(=O)N3CC[C@H](O)C3)cc2)(C2CCCC2)C1` (stereo in doubt) [Example 69, 6-Cyclopentyl-6-{2-[4-(3-hydroxy-pyrrolidine-1-carbonyl)-phenyl]-ethyl}-dihydro-pyran-2,4-dione] and `O=C1CC(=O)OC(CCc2ccc(O)cc2)(C2CCCC2)C1` (stereo not shown) [Example 1, 6-Cyclopentyl-6-[2-(4-hydroxyphenyl)ethyl]dihydropyran-2,4-dione] fall in the same range of IC50: 10 to 50 µM for the first, 10 to 50 µM for the second.

First: O=C1CC(=O)OC(CCc2cccc3ccccc23)(C2CCCC2)C1 (stereo not shown) [Example 2, 6-Cyclopentyl-6-(2-napthalen-1-ylethyl)dihydropyran-2,4-dione]
Second: COc1ccccc1CCC1(C2CCCC2)CC(=O)CC(=O)O1 (stereo not shown) [Example 4, 6-Cyclopentyl-6-[2-(2-methoxyphenyl)ethyl]dihydropyran-2,4-dione]
The IC50 of the first is higher: greater than 50 µM for the first, 10 to 50 µM for the second.

`C=CCOCc1ccccc1CCC1(C2CCCC2)CC(=O)CC(=O)O1` (stereo not shown) [Example 5, 6-[2-(2-Allyloxymethylphenyl)ethyl]-6-cyclopentyldihydropyran-2,4-dione] and `O=C1CC(=O)OC(CCc2ccccc2CO)(C2CCCC2)C1` (stereo not shown) [Example 6, 6-Cyclopentyl-6-[2-(2-hydroxymethylphenyl)ethyl]dihydropyran-2,4-dione] fall in the same range of IC50: 10 to 50 µM for the first, 10 to 50 µM for the second.

`COc1ccc(CCC2(C3CCCC3)CC(=O)CC(=O)O2)c(C#N)c1` (stereo not shown) [Example 7, 2-[2-(2-Cyclopentyl-4,6-dioxo-tetrahydro-pyran-2-yl)-ethyl]-5-methoxy-benzonitrile] and `COc1ccc(CCC2(C3CCCC3)CC(=O)CC(=O)O2)cn1` (stereo not shown) [Example 8, 6-cyclopentyl-6-[2-(6-methoxypyridin-3-yl)ethyl]dihydro-2H-pyran-2,4(3H)-dione] fall in the same range of IC50: 10 to 50 µM for the first, 10 to 50 µM for the second.

Compared with `CC(C)c1cccc(CCC2(C3CCCC3)CC(=O)CC(=O)O2)c1` (stereo not shown) [Example 9, 6-Cyclopentyl-6-[2-(3-isopropyl-phenyl)-ethyl]-dihydro-pyran-2,4-dione], `COC(=O)Cc1ccc(CCC2(C3CCCC3)CC(=O)CC(=O)O2)cc1` (stereo not shown) [Example 10, {4-[2-(2-Cyclopentyl-4,6-dioxo-tetrahydro-pyran-2-yl)-ethyl]-phenyl}-acetic acid methyl ester] is higher in IC50: 1 to 10 µM for the first, 10 to 50 µM for the second.

First: CC(C)(C)c1cccc(CCC2(C3CCCC3)CC(=O)CC(=O)O2)c1 (stereo not shown) [Example 11, 6-[2-(3-tert-butyl-phenyl)-ethyl]-6-cyclopentyl-dihydro-pyran-2,4-dione]
Second: O=C1CC(=O)OC(CCc2nccs2)(C2CCCC2)C1 (stereo not shown) [Example 12, 6-Cyclopentyl-6-(2-thiazol-2-yl-ethyl)-dihydro-pyran-2,4-dione]
The IC50 of the first is lower: 1 to 10 µM for the first, greater than 50 µM for the second. The first is the more potent here.

First: CC(C)(C#N)c1cccc(CCC2(C3CCCC3)CC(=O)CC(=O)O2)c1 (stereo not shown) [Example 13, 2-{3-[2-(2-Cyclopentyl-4,6-dioxo-tetrahydro-pyran-2-yl)-ethyl]-phenyl}-2-methyl-propionitrile]
Second: CC(C)(C)OC(=O)NCC(C)(C)c1cccc(CCC2(C3CCCC3)CC(=O)CC(=O)O2)c1 (stereo not shown) [Example 14, (2-{3-[2-(2-Cyclopentyl-4,6-dioxo-tetrahydro-pyran-2-yl)-ethyl]-phenyl}-2-methyl-propyl)-carbamic acid tert-butyl ester]
The IC50 of the first is lower: 1 to 10 µM for the first, 10 to 50 µM for the second. The first is the more potent here.

First: COc1cccc(CCC2(C3CCCC3)CC(O)=CC(=O)O2)c1 (stereo not shown) [Example 16, 6-Cyclopentyl-4-hydroxy-6-[2-(3-methoxy-phenyl)-ethyl]-5,6-dihydropyran-2-one]
Second: CC(=O)c1ccc(CCC2(C3CCCC3)CC(O)=CC(=O)O2)cc1C (stereo not shown) [Example 17, 6-[2-(4-Acetyl-3-methyl-phenyl)-ethyl]-6cyclopentyl-4-hydroxy-5,6-dihydro-pyran-2-one]
The IC50 of the first is higher: 10 to 50 µM for the first, 1 to 10 µM for the second.

`Cc1cc(CCC2(C3CCCC3)CC(O)=CC(=O)O2)ccc1C1(C)OCCO1` (stereo not shown) [Example 18, 6-Cyclopentyl-4-hydroxy-6-{2-[3-methyl-4-(2-methyl-1,3-dioxolan-2-yl)-phenyl]-ethyl}-5,6-dihydro-pyran-2-one] and `COc1cc(CCC2(C3CCCC3)CC(O)=CC(=O)O2)ccc1O` (stereo not shown) [Example 19, 6-Cyclopentyl-4-hydroxy-6-[2-(4-hydroxy-3-methoxy-phenyl)-ethyl]-5,6-dihydro-pyran-2-one] fall in the same range of IC50: 1 to 10 µM for the first, 1 to 10 µM for the second.

First: COc1cc(CCC2(C3CCCC3)CC(O)=CC(=O)O2)ccc1OCc1ccccc1 (stereo not shown) [Example 20, 6-[2-(4-Benzyloxy-3-methoxy-phenyl)-ethyl]-6-cyclopentyl-4-hydroxy-5,6-dihydro-pyran-2-one]
Second: O=C1C=C(O)CC(CCCc2ccccc2)(C2CCCC2)O1 (stereo not shown) [Example 21, 6-Cyclopentyl-4-hydroxy-6-(3-phenyl-propyl)-5,6-dihydro-pyran-2 one]
The IC50 of the first is lower: 1 to 10 µM for the first, greater than 50 µM for the second. The first is the more potent here.

`O=C1C=C(O)CC(CCCC2CCCCC2)(C2CCCC2)O1` (stereo not shown) [Example 22, 6-(3-Cyclohexyl-propyl)-6-cyclopentyl-4-hydroxy-5,6-dihydro-pyran-2-one] and `O=C1CC(=O)OC(CCc2ccc3c(c2)OCO3)(C2CCCC2)C1` (stereo not shown) [Example 23, 6-(2-Benzo[1,3]dioxol-5-yl-ethyl)-6-cyclopentyl-dihydro-pyran-2,4-dione] fall in the same range of IC50: 10 to 50 µM for the first, 10 to 50 µM for the second.

`CCOc1cccc(CCC2(C3CCCC3)CC(=O)CC(=O)O2)c1` (stereo not shown) [Example 24, 6-Cyclopentyl-6-[2-(3-ethoxy-phenyl)-ethyl]-dihydro-pyran-2,4-dione] and `CCOc1ccc(CCC2(C3CCCC3)CC(=O)CC(=O)O2)cc1` (stereo not shown) [Example 25, 6-Cyclopentyl-6-[2-(4-ethoxy-phenyl)-ethyl]-dihydro-pyran-2,4-dione] fall in the same range of IC50: 1 to 10 µM for the first, 1 to 10 µM for the second.

`O=C1CC(=O)OC(CCc2cccc(Cl)c2)(C2CCCC2)C1` (stereo not shown) [Example 26, 6-[2-(3-Chloro-phenyl)-ethyl]-6-cyclopentyl-dihydro-pyran-2,4-dione] and `COc1ccc(CCC2(C3CCCC3)CC(=O)CC(=O)O2)cc1Cl` (stereo not shown) [Example 27, 6-[2-(3-Chloro-4-methoxy-phenyl)-ethyl]-6-cyclopentyl-dihydro-pyran-2,4-dione] fall in the same range of IC50: 1 to 10 µM for the first, 1 to 10 µM for the second.

`CS(=O)(=O)c1ccc(CCC2(C3CCCC3)CC(=O)CC(=O)O2)cc1` (stereo not shown) [Example 28, 6-Cyclopentyl-6-[2-(4-methanesulfonyl-phenyl)-ethyl]-dihydro-pyran-2,4-dione] and `COc1ccc(CCC2(C3CCCC3)CC(=O)CC(=O)O2)cc1C` (stereo not shown) [Example 29, 6-Cyclopentyl-6-[2-(4-methoxy-3-methyl-phenyl)-ethyl]-dihydro-pyran-2,4-dione] fall in the same range of IC50: 1 to 10 µM for the first, 1 to 10 µM for the second.

Work on `COc1ccc(CCC2(C3CCCC3)CC(=O)CC(=O)O2)cc1F` (stereo not shown) [Example 30, 6-Cyclopentyl-6-[2-(3-fluoro-4-methoxy-phenyl)-ethyl]-dihydro-pyran-2,4-dione] yielded an IC50 of less than 1 µM.
